# Laboratory results published in patent US8016810B2, “Transdermal delivery system for cosmetic agents” (TransPharma Medical Ltd., priority 2003, dated 2011).
# Columns and labels:
# [1] = In vitro skin permeation study, flow-through Franz diffusion cell, ViaDerm (micro-channel) treated vs intact skin; format: in vitro ADME, porcine; conditions: for Total permeated amount: after 24 hr
# Procedure: The density of the microelectrode array was 100 microelectrodes/cm^2. […] The permeability of the cosmetic agents through porcine skin was measured in vitro with a flow-through Franz diffusion cell system (Laboratory Glass Apparatus, Berkeley, Calif.). […] Skin micro-channeling was performed in cells defined as VD (ViaDerm) application group, and then TEWL was measured again to control the operation. The skin pieces were placed on the receiver chambers with the stratum corneum facing upwards, and the donor chambers were clamped in place. […] Samples from the acceptor solutions were collected into tubes (using a fraction collector, Retriever IV, ISCO, Lincoln, Nebr., USA) at predetermined times for up to 24 hr period. The samples were kept at 4° C. until analyzed by HPLC. Samples from the acceptor solutions (10-50 μl) were injected into HPLC system (Waters) equipped with a pre-packed LiChrospher C18 column (150×3.9 mm, 5 μm; Waters), and a UV detector. […] The Salicylic acid samples were separated using an isocratic mobile phase containing 5% methanol 25% Acetonitrile and 0.01 mol/l KH2PO4/H3PO4 buffer pH 2.3 in H2O, at a flow rate 1 ml/min. The detection of salicylic acid was performed at a wavelength of 237 nm. […] The detection of hydroquinone was performed at a wavelength of 280 nm. […] The permeation efficacy is defined as the % of penetrated agent out of total amount of the agent applied on the skin.
# [2] = over a 4 to 6 month period, systemic; cited from earlier work
# [3] = relative to hydroquinone; cited from earlier work
# [4] = ViaDerm treated skin, after 24 h, 0.25 ml solution in donor chamber
# [5] = ViaDerm treated skin, 0.25 ml solution in donor chamber
# [6] = after 3 h, 0.25 ml solution in donor chamber
# [7] = after 24 h, 0.25 ml solution in donor chamber
# [8] = control untreated skin, 0.25 ml solution in donor chamber
# [9] = untreated skin, after 24 h, 0.25 ml solution in donor chamber
"Permeation efficacy [1, 4] [%]","Total permeated amount [1, 5] [μg/cm^2]","Difference in permeated amount, ViaDerm treated compared to untreated skin [1, 6] [fold]","Difference in permeated amount, ViaDerm treated compared to untreated skin [1, 7] [fold]","Total permeated amount [1, 8] [μg/cm^2]","Permeation efficacy [1, 9] [%]",Compound,"Quantity required to achieve a similar skin whitening effect, compared to the quantity of hydroquinone used [3]",further results
–,–,–,–,–,–,Cn1c(=O)c2c(ncn2C)n(C)c1=O [caffeine],–,"Caffeine flux (plateau) ([1]; ViaDerm pretreated skin, after 6 hours, 0.25 ml of 1% w/v aqueous solution): 18.5 ± 2.2 µg/mL; Permeation efficacy ([1]; ViaDerm pretreated skin, after 16 hours, 0.25 ml of 1% w/v solution): 37.1±4.8%; Permeation efficacy, ViaDerm in comparison to untreated skin ([1]; after 16 hours, 0.25 ml of 1% w/v solution): 10 fold; Caffeine flux ([1]; control untreated skin, after 6 hours, 0.25 ml of 1% w/v aqueous solution): 0.4 ± 0.3 µg/mL; Cumulative permeability through ViaDerm treated skin compared to intact skin ([1]; result in words (FIGS. 1, 2, 4)): enhanced; Permeation efficacy ([1]; untreated skin, after 16 hours, 0.25 ml of 1% w/v solution): 3.6±2.6%"
–,–,–,–,–,–,CC1=C(/C=C/C(C)=C/C=C/C(C)=C\C(=O)O)C(C)(C)CCC1 [isotretinoin],–,Acne cleared by treatment [2]: ≤ 85%
27,1824,39,29,62,1,Oc1ccc(O)cc1 [hydroquinone],–,–
–,–,–,–,–,–,OC[C@H]1O[C@@H](Oc2ccc(O)cc2)[C@H](O)[C@@H](O)[C@@H]1O [arbutin],over 100 times,–
62,820,17,10,84,4,O=C(O)c1ccccc1O [salicylic acid],–,–
–,–,–,–,–,–,O=C1O[C@H]([C@@H](O)CO)C(O)=C1O [ascorbic acid],17 times,–
